Source: patent US20190307783A1, “USE OF ANTIVIRALS TO INHIBIT PROTOZOAN VIRUSES” (priority 2016, published 2019)
“Also recorded” adds a separate entry of the source. Like-named read-outs stand apart in the source and are kept apart here.

Tests used:
L. guyanensis (LgyLRV1+) = assay: Drug-inhibition test: growth of LgyLRV1+ parasites; type: cell-based, Leishmania guyanensis
Protocol: These compounds were examined for their ability to inhibit the growth of LgyLRV1^+ and virus levels by LRV1 capsid flow cytometry.
Most studies were performed using luciferase-expressing transfectants of L. guyanensis (MHOM/BR/78/M4147) described previously [LRV1^+ LgyM4147/SSU:IR2SAT-LUC(b)c3 and LRV^−LgyM4147/pX63HYG/SSU:IR2SAT-LUC(b)c4] (54); these lines are termed LgyLRV1^+ and LgyLRV1^−, respectively. Two strains of LRV1^+L. braziliensis were examined: LEM2780 (MHOM/BO/90/CS) and LEM3874 (MHOM/BO/99/IMT252 no. 3) (12). Parasites were grown in Schneider's media (Sigma Aldrich, St. Louis, Mo., USA) prepared according to the supplier's instructions with pH adjusted to 6.5 and supplemented with 0.76 mM hemin, 2 μg/mL biopterin, 50 U/mL penicillin, 50 μg/mL streptomycin, and 10% (vol/vol) heat-inactivated FBS. Cell concentrations were determined using a Coulter Counter ([…], Indianapolis, Ind., USA).
(§1) Parasites were inoculated at 2×10^5 cells/mL into Schneider's media lacking supplemental adenine.

[1] = test system: LRV1 (LgyLRV1 capsid levels); assay: microbe, parasite or virus in culture
Excerpt: Because LRV1 (like most Totiviridae) is not shed from the cell (33, 34), we developed a flow cytometric assay to measure intracellular LRV1 capsid levels on a per cell basis. To detect LRV1 we used binding to a rabbit anti-LgyLRV1 capsid antiserum (35) followed by detection with Alexa Fluor488-conjugated goat anti-rabbit IgG.
as §1
For capsid flow cytometry, 10^7 cells were fixed at room temperature using 2% (wt/vol) paraformaldehyde (Thermo Fisher Scientific) in PBS for 2 minutes. They were then incubated in blocking buffer [10% (vol/vol) normal goat serum (Vector Laboratories, Burlingame, Calif., USA) and 0.2% TRITON X-100 in PBS] for 30 minutes at room temperature. Anti-LgyLRV1 capsid antibody (35) was added (1:20,000 dilution) and incubated at room temperature for 1 hour. After two washes with PBS, cells were resuspended in 200 μL PBS with Alexa Fluor488-labeled goat anti-rabbit IgG (Alexafluor, Invitrogen; 1:1,000; or Thermo Fisher Scientific; 1:2,000 dilution), and incubated 1 hour at room temperature. After two additional washes with PBS, cells were subjected to flow cytometry, gating for single cells using forward and side scatter and the data analyzed using […] software (BD Bioscience, San Jose, Calif., USA).

[2] = animal models; cited from earlier work
Zika virus = settings: cultured mammalian cells; read-out: EC50 against Zika virus; cited from earlier work
Lgy LRV1 RDRP = Lgy LRV1 RDRP (Leishmania RNA virus 1 - 4, UniProt Q02382); assay: RDRP assay of purified virions, [α-32P]UTP incorporation; type: biochemical, Leishmania RNA virus 1 (Lgy strain M4147); settings: highest concentration tested 600 μM
Lgy LRV1 RDRP, sequence (Q02382 whole entry): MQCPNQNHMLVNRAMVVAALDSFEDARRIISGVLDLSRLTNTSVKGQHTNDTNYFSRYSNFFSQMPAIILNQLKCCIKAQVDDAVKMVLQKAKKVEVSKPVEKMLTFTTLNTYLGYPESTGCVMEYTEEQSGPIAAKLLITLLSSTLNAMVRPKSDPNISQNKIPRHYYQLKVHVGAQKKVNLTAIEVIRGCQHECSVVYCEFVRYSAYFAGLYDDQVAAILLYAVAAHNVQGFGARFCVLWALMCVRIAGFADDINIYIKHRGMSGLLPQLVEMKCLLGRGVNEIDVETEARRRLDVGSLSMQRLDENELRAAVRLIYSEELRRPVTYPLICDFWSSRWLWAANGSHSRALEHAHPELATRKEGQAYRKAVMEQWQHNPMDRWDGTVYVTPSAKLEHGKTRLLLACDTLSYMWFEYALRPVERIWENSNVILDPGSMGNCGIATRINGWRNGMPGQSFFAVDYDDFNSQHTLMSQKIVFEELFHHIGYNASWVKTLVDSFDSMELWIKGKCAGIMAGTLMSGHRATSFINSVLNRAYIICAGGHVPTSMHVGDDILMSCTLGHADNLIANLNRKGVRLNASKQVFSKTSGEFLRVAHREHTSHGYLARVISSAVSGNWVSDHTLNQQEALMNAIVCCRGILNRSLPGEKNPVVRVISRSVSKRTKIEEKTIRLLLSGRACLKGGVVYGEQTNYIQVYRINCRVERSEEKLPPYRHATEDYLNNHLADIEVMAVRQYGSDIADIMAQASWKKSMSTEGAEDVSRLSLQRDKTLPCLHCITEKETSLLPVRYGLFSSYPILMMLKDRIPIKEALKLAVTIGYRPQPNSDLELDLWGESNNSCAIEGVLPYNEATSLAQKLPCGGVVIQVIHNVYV
Protocol: RDRP assays were carried out with LRV1 virions purified from Lgy strain M4147 by an established cesium chloride (CsCl) equilibrium ultracentrifugation procedure {Widmer, 1989; Widmer, 1990}. Following separation, virus particles were detected and quantified by their reactivity with an anti-capsid antibody (FIG. 21). We reproducibly observed three overlapping ‘peaks’, designated low-, medium-, and high-density (LD, MD and HD) in order of increasing density. […] The densities of the Lgy LRV1 LD, MD and HD peaks were 1.29, 1.36 and 1.41 g/mL, in good agreement with the densities of L-A virus particles bearing ssRNA- and dsRNA- (1.31 and 1.41 g/mL, respectively) {Esteban, 1986}. […]
To measure RDRP activity, purified virions were allowed to incorporate [α-^32P]UTP in the presence of the remaining nucleoside triphosphates for 1 hour, a time chosen to allow one round of transcription or replication of the viral genome {Widmer, 1990}. RNA was purified and separated by native gel electrophoresis, and the products were visualized and quantified. […]
RDRP activity of purified virions was measured using an [α-^32P]UTP incorporation assay described previously{Widmer, 1990}. […] The standards lane was excised and stained with ethidium bromide, while the radiolabeled products were detected by exposing an imaging plate for 24 hours and reading it with a FLA-5100 phosphoimager (Fujifilm, Tokyo, Japan). […]

[3] = 48 h, read-out: Percent control (LRV1 capsid)
[4] = LgyLRV1+, tested at 50 μM, growth after 2 days
[5] = screen at 100 μM or maximum concentration permitted by solubility, 2 days

C[C@@]1(O)[C@H](O)[C@@H](CO)O[C@H]1n1ccc2c(N)ncnc21 [2′C-methyl-7-deaza-adenosine, 7-deaza-2′-C-methyladenosine]
activity at 100 µM (L. guyanensis (LgyLRV1+); Leishmania guyanensis, 48 h, LgyLRV1+, tested at 100 μM, growth after 2 days, read-out: Percent control (density)): 20%
EC50 (L. guyanensis (LgyLRV1+); Leishmania guyanensis, L. guyanensis, relative cellular growth rate, titration, read-out: EC50 for parasite growth): > 100 µM
inhibition at 100 µM (L. guyanensis (LgyLRV1+); Leishmania guyanensis, tested at 100 μM, read-out: Inhibition of parasite density): 90%
Density (cells/mL) (L. guyanensis (LgyLRV1+); LgyLRV1+, tested at 100 μM, growth after 2 days): 3.38E+6 cells/mL
activity at 100 µM [1, 3]: 10%
Selectivity for LRV1 versus L. guyanensis growth inhibition ([1]; EC50 growth vs EC50 LRV1 capsid): > 20 fold
LRV1 capsid (geometric mean FU) ([1]; LgyLRV1+, tested at 100 μM, 2 days): 27 FU
EC50 ([1]; read-out: EC50 for LRV1 capsid inhibition): ~5 µM
Reduction in LRV1 capsid levels ([1]; tested at 100 μM): 12 fold
Serum half-life [2]: 1.6 h
EC50 (Zika virus): 10 µM

Nc1ncnc2c1ncn2[C@H]1C[C@H](O)[C@@H](COP(=O)(O)OP(=O)(O)OP(=O)(O)O)O1 [dATP]
Inhibition of RDRP activity, in words (Lgy LRV1 RDRP): failed to inhibit; also recorded: completely inactive

CC(C)C[C@H](NC(=O)[C@H]1O[C@@H]1C(=O)O)C(=O)NCCCCN=C(N)N [e64, E-64]
Density (cells/mL) (L. guyanensis (LgyLRV1+); [4]): 1.80E+07 cells/mL
Percent control (density) (L. guyanensis (LgyLRV1+); [4]): 107 Percent control
Effect on L. guyanensis growth, in words (L. guyanensis (LgyLRV1+); [5]): no effects
LRV1 capsid (geometric mean FU) [1]: 153 FU
Percent control (LRV1 capsid) ([1]; LgyLRV1+, tested at 50 μM, 2 days): 58 Percent control
Effect on LRV1 (capsid) levels, in words [1, 5]: only minimal effects

CCOC(=O)[C@H]1O[C@@H]1C(=O)N[C@@H](CC(C)C)C(=O)NCCC(C)C [e64d, E64-d]
activity at 10 µM (L. guyanensis (LgyLRV1+); Leishmania guyanensis, 48 h, LgyLRV1+, tested at 10 μM, growth after 2 days, read-out: Percent control (density)): 90%
Density (cells/mL) (L. guyanensis (LgyLRV1+); LgyLRV1+, tested at 10 μM, growth after 2 days): 1.52E+07 cells/mL
activity at 10 µM [1, 3]: 37%
LRV1 capsid (geometric mean FU) ([1]; LgyLRV1+, tested at 10 μM, 2 days): 97 FU
